In ChEMBL document CHEMBL1133417, “N-[[1-(2-phenylethyl)pyrrolidin-2-yl]methyl]cyclohexanecarboxamides as selective 5-HT1A receptor agonists” (Bioorg Med Chem Lett, 2000) one finds Ki and IC50 data, which are given here for 15 compounds.

The target in test [1] is T1, D(2) dopamine receptor (Homo sapiens, UniProt P14416). Nature of the test: Binding affinity for Dopamine receptor D2 by displacement of [3H]-spiperone. (Displacement assays read how much labelled ligand stays bound in the presence of the test substance.)
T1 sequence (P14416 whole entry): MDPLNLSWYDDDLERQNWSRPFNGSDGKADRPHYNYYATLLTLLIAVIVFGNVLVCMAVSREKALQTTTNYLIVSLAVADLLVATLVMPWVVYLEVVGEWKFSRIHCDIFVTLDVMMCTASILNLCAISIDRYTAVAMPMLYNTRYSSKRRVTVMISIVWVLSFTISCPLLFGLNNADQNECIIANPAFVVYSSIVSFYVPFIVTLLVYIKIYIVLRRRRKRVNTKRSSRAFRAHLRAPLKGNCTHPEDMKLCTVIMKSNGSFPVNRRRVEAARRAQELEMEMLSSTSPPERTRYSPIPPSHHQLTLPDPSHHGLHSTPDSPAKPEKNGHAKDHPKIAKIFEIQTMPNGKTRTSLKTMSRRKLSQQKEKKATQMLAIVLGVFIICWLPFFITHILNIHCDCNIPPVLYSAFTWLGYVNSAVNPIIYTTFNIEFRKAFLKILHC
In test [2] the target is T2, Serotonin 2 (5-HT2) receptor (Rattus norvegicus, UniProt P30994+P08909+P14842). Nature of the test: Binding affinity for 5-hydroxytryptamine 2 receptor from striata of male Wistar rats by displacement of [3H]ketanserin. The test is classed as protein assay.
Test [3] deals with T2, Serotonin 2 (5-HT2) receptor. Nature of the test: Inhibitory concentration against binding of 5-hydroxytryptamine 2 receptor from striata of male Wistar rats by displacement of [3H]-ketanserin. The class given is protein assay.
Test [4] has as its target T1, D(2) dopamine receptor. Nature of the test: Inhibitory concentration against binding of Dopamine receptor D2 by displacement of [3H]spiperone.
In test [5] the target is T3, 5-hydroxytryptamine receptor 1A (Rattus norvegicus, UniProt P19327).
T3 sequence (P19327 whole entry): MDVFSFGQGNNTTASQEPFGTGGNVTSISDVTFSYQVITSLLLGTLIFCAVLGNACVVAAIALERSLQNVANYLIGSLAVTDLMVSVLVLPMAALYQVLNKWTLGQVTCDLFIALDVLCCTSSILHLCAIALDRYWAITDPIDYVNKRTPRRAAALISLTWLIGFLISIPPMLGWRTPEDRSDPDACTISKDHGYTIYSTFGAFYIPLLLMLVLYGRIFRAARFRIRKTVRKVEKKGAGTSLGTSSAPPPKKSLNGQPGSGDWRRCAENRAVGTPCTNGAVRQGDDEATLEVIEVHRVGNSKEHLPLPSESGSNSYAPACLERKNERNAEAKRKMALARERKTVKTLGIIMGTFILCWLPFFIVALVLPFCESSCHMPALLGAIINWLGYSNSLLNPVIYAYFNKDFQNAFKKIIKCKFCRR
Nature of the test: Displacement of [3H]8-OH-DPAT from rat striata 5-hydroxytryptamine 1A receptor.

The target in test [6] is T2, Serotonin 2 (5-HT2) receptor. Nature of the test: Inhibitory concentration against 5-hydroxytryptamine 2 receptor from striata of male Wistar rats by displacement of [3H]-ketanserin. The test is classed as protein assay.
Test [7] has as its target T3, 5-hydroxytryptamine receptor 1A. Nature of the test: Inhibitory concentration against binding of 5-hydroxytryptamine 1A receptor from striata of male Wistar rats by displacement of [3H]8-OH-DPAT.

Regarding `CCCCN1CCC[C@H]1CNC(=O)c1cc(Cl)cc2c1OCCN2C`, the values for the Ki (at D(2) dopamine receptor [1]; in test [2] (read-out: Ki)) were 12 nM and 300 nM, respectively.

In the case of `CSc1cccc(C(=O)NC[C@H]2CCCN2CCc2ccccc2)c1`, the IC50 in test [3] was over 1000 nM l-1; at D(2) dopamine receptor [4] it was over 1000 nM. The Ki in test [5] turned out to be 110 nM.

`COc1cc2c(c(C(=O)NC[C@@H]3CCCN3CCc3ccccc3)c1)OCC2`: the Ki is 120 nM on D(2) dopamine receptor [1], 21 nM in test [5] and 660 nM l-1 in test [2].

On to `O=C(NC[C@H]1CCCN1CCc1ccccc1)C1CCCCC1`, for which the IC50 was over 1000 nM l-1 in test [6] and over 1000 nM at D(2) dopamine receptor [4]. This compound also came in with a Ki in test [5] of 190 nM.

In the case of `O=C(NC[C@H]1CCCN1CCc1ccccc1)c1ccccc1`, the results for the IC50 (in test [6]; at D(2) dopamine receptor [4]; in test [7]) were over 1000 nM l-1, over 1000 nM and over 1000 nM, respectively.

`O=C(NC[C@@H]1CCCN1CCc1ccccc1)C1CCCCC1`: the IC50 at D(2) dopamine receptor [4] is over 1000 nM. Further, the Ki in test [5] is 0.49 nM; in test [2], 240 nM l-1.

In test [3], `CN1CCOc2c(C(=O)NC[C@H]3CCCN3CCc3ccccc3)cc(Cl)cc21` registered an IC50 of over 1000 nM l-1.

On D(2) dopamine receptor [4], `CSc1cccc(C(=O)NC[C@@H]2CCCN2CCc2ccccc2)c1` displayed an IC50 of over 1000 nM. Further, the Ki came to 4.3 nM in test [5] and 160 nM l-1 in test [2].

In the case of `CN1CCOc2c(C(=O)NC[C@@H]3CCCN3CCc3ccccc3)cc(Cl)cc21`, the Ki in test [2] (read-out: Ki) is 280 nM.

Regarding `COc1ccc(SC)cc1C(=O)NC[C@@H]1CCCN1CCc1ccccc1`, the Ki on D(2) dopamine receptor [1] was 460 nM; in test [5] it was 24 nM; in test [2], 170 nM l-1.

On D(2) dopamine receptor [1], `O=C(c1ccc(F)cc1)C1CCN(CCn2c(=O)[nH]c3ccccc3c2=O)CC1` [KETANSERIN] had a Ki of 240 nM. Moreover, in test [7], the IC50 was over 1000 nM.

In test [6], `CCCN(CCC)C1CCc2cccc(O)c2C1` (stereo unspecified) [8-OH-DPAT] registered an IC50 of over 1000 nM l-1.

For the compound `CSc1cc2c(c(C(=O)NC[C@H]3CCCN3CCc3ccccc3)c1)OCC2`, the Ki on D(2) dopamine receptor [1] was 6.7 nM; in test [5], 100 nM; in test [2], 430 nM l-1.

Regarding `CCCCN1CCC[C@@H]1CNC(=O)c1cc(Cl)cc2c1OCCN2C`, the values for the Ki (on D(2) dopamine receptor [1]; in test [2] (read-out: Ki)) were 630 nM and 86 nM, respectively.

At D(2) dopamine receptor [4], `O=C(NC[C@@H]1CCCN1CCc1ccccc1)c1ccccc1` yielded an IC50 of over 1000 nM. For the same compound, the Ki in test [5] stood at 4.6 nM; in test [2] it was 430 nM l-1.
